# Laboratory results taken from patent publication US20190352358A1, “COMPOUNDS, COMPOSITIONS AND USES THEREOF FOR IMPROVEMENT OF BONE DISORDERS” (ALIZE PHARMA III SAS, priority 2017, published 2019).
# Non-standard residues stand in square brackets, D forms with d. Residues, ends and D or L forms follow the SMILES beside them. Primed or numbered codes have the meaning given here. No end group written: not given here. *: point of attachment. PEG20′ = PEG20 chain (pegylated), attached via a cysteine; Arachidoyl = CCCCCCCCCCCCCCCCCCCC(=O)*; Stearoyl = CCCCCCCCCCCCCCCCCC(=O)*; Palmitoyl = CCCCCCCCCCCCCCCC(=O)*; Myristoyl = CCCCCCCCCCCCCC(=O)*
# What was measured:
# [1] = system: MC-3T3 E1 clone 4 (CL4) osteoblast cells; experiment: Osteocalcin expression during in vitro osteoblast differentiation, acylated and cyclic analogs (Example 7); assay type: cell-based; settings: for Fold increase vs DM ± SE: Table 18, test peptide 1 μg/L, 18-21 day interval
# Procedure: (§1) Each acylated peptide was tested in a biologic assay measuring its ability to stimulate differentiation of osteoblast cells over a 18-21 day interval as assessed by the stimulation of osteocalcin protein synthesis. MC-3T3 E1 clone 4 (CL4) osteoblast cells were obtained from ATCC (Manassas, Va., USA). Cells were cultured in α-MEM containing 10% fetal bovine serum (FBS; Thermo Fisher Scientific, Pittsburgh, Pa., USA). After confluency, culture medium was changed to differentiation medium (DM), which contained 10% FBS plus 50 μg/mL ascorbic acid and 4 mM β-glycerol phosphate, with or without a test peptide (1 μg/L). Fresh DM, with or without test peptide, was applied every 72 hours. The cell monolayers were lysed in a modified radioimmunoprecipitation assay (RIPA) buffer. Total cellular protein in the lysates was determined using BCA (Thermo Fisher Scientific, Rockford, Ill., USA). Cell proteins are separated on SDS-PAGE gel and transferred on PVDF membrane for analysis. Osteocalcin detection was performed using anti-osteocalcin antibody at 1:200 dilution (Santa Cruz Biotechnology, Inc, Santa Cruz, Calif., USA) and visualized using enhanced chemiluminescence (Thermo Fisher Scientific, Rockford, Ill., USA).
# In a separate experiment, the effect of cyclization was examined on of the HBD1 (3-11) peptide. The cyclic HBD1 (3-11) was synthetized and tested on the in vitro osteoblast differentiation assay.
# [2] = Pharmacokinetics in male Sprague Dawley rats after intravenous and subcutaneous injection (Example 10); assay type: in vivo; settings: 1 μmol net peptide/kg, rat
# Procedure: The peptides were reconstituted in saline (0.9% NaCl). Three male Sprague Dawley rats were used per group. Intravenous doses were administered into a lateral tail vein at the dose of 1 μmol net peptide/kg. Subcutaneous doses were administered into the right flank of each animal, also at the dose of 1 μmol net peptide/kg. Following dosing, serial whole blood samples (ca. 0.25 mL) were collected from a lateral tail vein into K2EDTA treated containers. Following each blood sample collection, samples were placed into a cooling block at 4° C. Samples were collected prior to dosing then at 2, 5, 15 and 30 minutes then 1, 2, 4, 6 and 8 and 24 hours post dose for intravenous injection and at 15 and 30 minutes then 1, 2, 4, 6, 8 and 24 hours post dose for subcutaneous injection.
# Blood samples were centrifuged at 10000×g for 2 minutes at 4° C. and resultant plasma aspirated off into clean fully, labelled tubes. Plasma samples were snap frozen following aspiration then stored at −80° C. Peptides were extracted and analyzed as described in Example 9. The limits of quantification of these methods were 0.001 nmol/mL for cyclic HBD1 (3-11) and HBD1 (3-11) and 0.003 nmol/mL for HBD1 (1-13). All values below these limits of quantification were considered as zero.
# [3] = system: MC-3T3 E1 clone 4 (CL4) osteoblast cells; experiment: Osteocalcin expression during in vitro osteoblast differentiation, PEGylated analogs (Example 6); assay type: cell-based; settings: Table 17; test peptide 2 μg/mL; 18-21 day interval
# Procedure: as §1, with “Each” for “Each acylated”, “(2 μg/mL).” for “(1 μg/L).”, “SD S-PAGE” for “SDS-PAGE”
# [4] = Pharmacokinetics of acylated analogs in male Sprague Dawley rats after subcutaneous injection (Example 11); assay type: in vivo; parameters: AUC(0-t): concentration or dose not given beside the values; settings: sc, rat, Table 24
# Procedure: The peptides were reconstituted in saline (0.9% NaCl). Three male Sprague Dawley rats (approximately 6 weeks of age) were used per group. Subcutaneous doses were administered into the right flank of each animal […]. Following dosing, serial whole blood samples (ca. 0.3 mL) were collected from retro-orbital sinus into K2EDTA treated containers. Following each blood sample collection, samples were placed into a cooling block at 4° C. Samples were collected prior to dosing then at 15 and 30 minutes then 1, 2, 4, 6, 8 and 24 hours post dose for subcutaneous injection. Blood samples were centrifuged at 3500×rpm for 10 minutes at 4° C. and resultant plasma aspirated off into clean fully, labelled tubes. Plasma samples were snap frozen following aspiration then stored at −80° C. The peptides were extracted with acetonitrile:water (75:25, v/v) and analyzed using developed LC-MS/MS methods as described in Example 9. The limits of detection of these methods are 0.003 nmol/mL for HBD1 (1-13) with palmitic acid at the N-terminus (C16:0), 0.0008 nmol/mL for HBD1 (3-11) with palmitic acid at the N-terminus (C16:0), 0.0070 nmol/mL for HBD1 (3-11) with stearic acid at the N-terminus (C18:0), and 0.0015 nmol/mL for HBD1 (3-11) with myristic acid at the N-terminus (C14:0), HBD1 (3-11) with arachidic acid at the N-terminus (C20:0), HBD1 (3-11) with palmitic diacid at the N-terminus (C16:0-diacid), HBD1 (3-11) with palmitic acid at the C-terminus (C16:0). All values below these limits of quantification were considered as zero.
# [5] = system: MC-3T3 E1 clone 4 (CL4) osteoblast cells; experiment: Osteocalcin expression during in vitro osteoblast differentiation, various doses of analogs (Example 8); assay type: cell-based; settings: Table 19, 18 day interval
# Procedure: as §1, with “The peptides were” for “Each acylated peptide was”, “tested at different concentrations” for “tested”, “their” for “its”, “18” for “18-21”, “an ascending dose of the peptide.” for “a test peptide (1 μg/L).”, “the” for “test”
# [6] = Stability of HBD1 fragments in human plasma; assay type: in vitro ADME
# Procedure: The peptides were spiked at 1 μg/mL (peptide backbone) into pre-warmed human K2EDTA plasma (at 37° C.) and incubated for up to 48 hours. Aliquots of plasma were extracted at specific time points (0, 24 and 48 hours post spike). Extraction was performed with acetonitrile:water (75:25, v/v) for HBD1 (1-13), HBD1 (1-13) with palmitic acid at the N-terminus (C16:0), HBD1 (3-11) with palmitic acid at the N-terminus (C16:0)) and HBD1 (3-11) with stearic acid at the N-terminus (C18:0) or with acetonitrile:water:formic acid (75:25:0.1, v/v/v) for HBD1 (3-11) and cyclic HBD1 (3-11). The peptides were analyzed using developed LC (C18 reverse phase column)—positive ion electrospray MS/MS methods specific to each peptide. The peak area at each time point was expressed as a percentage of the value obtained for the t=0 minutes time point.
# [7] = male, Sprague Dawley, plasma, iv
# [8] = male, Sprague Dawley, plasma, sc
Compound,Fold increase vs SEQ ID NO: 1 ± SE [3] [fold],Fold increase vs DM ± SE [1] [fold],Tlast (last time point with detectable peptide) [4] [h],"AUC(0-t) ([4]; male, Sprague Dawley, plasma) [µM·h]","Cmax ([4]; male, Sprague Dawley, plasma) [nM]","Tmax ([4]; male, Sprague Dawley, plasma) [min]",also measured
"CC(C)C[C@@H]1NC(=O)CNC(=O)[C@H](CC(C)C)NC(=O)[C@H](Cc2c[nH]cn2)NC(=O)[C@H](CCCCN)NC(=O)[C@H](CCCCN)NC(=O)[C@@H]2CCCN2C(=O)[C@H](CCC(=O)O)NC(=O)[C@H](CCC(=O)O)NC1=O [SEQ ID NO: 77, Cyclic(HLGLEEPKK)] (cyclo(EEPKKHLGL))",–,–,–,–,–,–,"in vitro biological activity of acylated or cyclic peptides vs parent peptides (in words) ([1]; text on Table 18 and separate experiment): did not appear to change the in vitro biological activity; Tlast (last time point with detectable peptide) ([2]; iv, listed as Cyclic HBD1 (3-11)): 8 h; bioavailability ([2]; male, Sprague Dawley, plasma, subcutaneous, sc vs iv, read-out: F (bioavailability)): 48%; AUC(0-t) [2, 7]: 2.09 µM·h; Cmax [2, 7]: 5720 nM; Tmax [2, 7]: 1.98 min; AUC(0-t) [2, 8]: 0.99 µM·h; Cmax [2, 8]: 1060 nM; Tmax [2, 8]: 15 min; Tlast (last time point with detectable peptide) ([2]; sc, listed as Cyclic HBD1 (3-11)): 4 h; Tlast (last time point with detectable peptide) ([2]; sc, listed as cyclic HBD1 (3-11)): ≤ 4 h"
63 ([PEG20′]CKHHLGLEEPKKLR) [compound 63],1.4 ± 0.3,–,–,–,–,–,–
65 ([PEG20′]CHHLGLEEPKK) [compound 65],1.4 ± 0.1,–,–,–,–,–,–
66 (HHLGLEEPKK; not fully specified; MOD_RES (10)..(10) Pegylated) [compound 66],2.2 ± 0.2,–,–,–,–,–,–
64 (KHHLGLEEPKKLR; not fully specified; MOD_RES (13)..(13) Pegylated) [compound 64],2.2 ± 0.4,–,–,–,–,–,–
CCCCCCCCCCCCCCCC(=O)NCCCC[C@H](NC(=O)[C@H](CCCCN)NC(=O)[C@@H]1CCCN1C(=O)[C@H](CCC(=O)O)NC(=O)[C@H](CCC(=O)O)NC(=O)[C@H](CC(C)C)NC(=O)CNC(=O)[C@H](CC(C)C)NC(=O)[C@@H](N)Cc1c[nH]cn1)C(=O)O [compound 76] (H-HLGLEEPKK(Palmitoyl)-OH; N-terminus and C-terminus assumed),–,3.18 ± 0.31,8,–,–,–,AUC(0-t) ([4]; in vivo): 1.09 µM·h; Cmax ([4]; in vivo): 500 nM; Tmax ([4]; in vivo): 15 min
CCCCCCCCCCCCCCCCCC(=O)N[C@@H](Cc1c[nH]cn1)C(=O)N[C@@H](CC(C)C)C(=O)NCC(=O)N[C@@H](CC(C)C)C(=O)N[C@@H](CCC(=O)O)C(=O)N[C@@H](CCC(=O)O)C(=O)N1CCC[C@H]1C(=O)N[C@@H](CCCCN)C(=O)N[C@@H](CCCCN)C(=O)O [compound 73] (Stearoyl-HLGLEEPKK-OH),–,2.93 ± 0.16,8,4.81,540,240,"Fold increase vs DM ± SD ([5]; dose 1.0 μM): 3.46 ± 0.47 fold; Fold increase vs DM ± SD ([5]; dose 2.0 μM): 4.48 ± 0.07 fold; Fold increase vs DM ± SD ([5]; dose 3.0 μM): 5.66 ± 0.45 fold; stability in human plasma (in words) ([6]; 24 and 48 hours incubation at 37° C.): similar; remaining at 24 h, 1 μg/mL ([6]; human, human K2EDTA plasma, spiked at 1 μg/mL, 37° C., 24 hours, read-out: Remaining parent peptide in human plasma 24 hours post spike): 89%; remaining at 48 h, 1 μg/mL ([6]; human, human K2EDTA plasma, spiked at 1 μg/mL, 37° C., 48 hours, read-out: Remaining parent peptide in human plasma 48 hours post spike): 91%"
67 ([PEG20′]CHLGLEEPKK) [compound 67],1.9 ± 0.2,–,–,–,–,–,–
CCCCCCCCCCCCCC(=O)N[C@@H](Cc1c[nH]cn1)C(=O)N[C@@H](CC(C)C)C(=O)NCC(=O)N[C@@H](CC(C)C)C(=O)N[C@@H](CCC(=O)O)C(=O)N[C@@H](CCC(=O)O)C(=O)N1CCC[C@H]1C(=O)N[C@@H](CCCCN)C(=O)N[C@@H](CCCCN)C(=O)O [compound 71] (Myristoyl-HLGLEEPKK-OH; C-terminus assumed),–,1.98 ± 0.22,6,1.11,240,60,–
CCCCCCCCCCCCCCCCCCCC(=O)N[C@@H](Cc1c[nH]cn1)C(=O)N[C@@H](CC(C)C)C(=O)NCC(=O)N[C@@H](CC(C)C)C(=O)N[C@@H](CCC(=O)O)C(=O)N[C@@H](CCC(=O)O)C(=O)N1CCC[C@H]1C(=O)N[C@@H](CCCCN)C(=O)N[C@@H](CCCCN)C(=O)O [compound 74] (Arachidoyl-HLGLEEPKK-OH),–,5.05 ± 0.95,8,2.58,250,120,–
